Data from patent publication US7511063B2, “High affinity quinoline-based kinase ligands” (Schering Corporation, priority 2006, dated 2009).

Target: CDK-2 (Homo sapiens, UniProt P24941)
Test: Fluorescence polarization displacement assay (inhibitory effectiveness toward CDK-2)
Assay type: binding
Settings: IC50
Protocol: Fluorescence Polarization Assay
Binding assays were performed in a 384 well Costar NBS coated plate. […] The concentration of BMS-Alexa Fluor647 was 50 nM. Serial dilutions of compounds were added to 12 wells. The final buffer concentration was 10 mM Hepes, pH 7.5, 150 mM NaCl, and 1 mM DTT. Samples were incubated at room temperature for 15 minutes and then read in an Analyst HT instrument using an excitation and emission wavelength of 580 and 680 nm, respectively.

| Compound | IC50 [µM] |
| --- | --- |
| CCCCCCc1ccc2nc(C(=O)N[C@@H](Cc3ccc(O)cc3)C(=O)OC)cc(C(=O)O)c2c1 [Compound 4] | < 1 |
| COC(=O)[C@H](Cc1ccc(O)cc1)NC(=O)c1cc(C(=O)O)c2cc(CCc3ccc(Cl)cc3)ccc2n1 [Compound 9] | < 1 |
| COC[C@H](Cc1ccc(O)cc1)NC(=O)c1cc(C(=O)O)c2cc(/C=C/c3ccc(Cl)cc3)ccc2n1 [Compound 16] | < 1 |
| COC(=O)[C@H](Cc1ccc(O)cc1)NC(=O)c1cc(C(=O)O)c2cc(-c3ccccc3)ccc2n1 [Compound 73] | < 1 |
| COC(=O)[C@H](Cc1ccc(F)cc1)NC(=O)c1cc(C(=O)O)c2cc(-c3cccc(C(F)(F)F)c3)ccc2n1 [Compound 109] | 1 to 40 |
| COC(=O)[C@H](Cc1ccc(OC)cc1)NC(=O)c1cc(C(=O)O)c2cc(-c3cccc(C(F)(F)F)c3)ccc2n1 [Compound 162] | > 40 |
| COC(=O)[C@H](Cc1cccc(O)c1)NC(=O)c1cc(C(=O)O)c2cc(-c3cccc(C(F)(F)F)c3)ccc2n1 [Compound 163] | > 40 |
| COC(=O)[C@@H](Cc1ccc(O)cc1)NC(=O)c1cc(C(=O)O)c2cc(-c3cccc(C(F)(F)F)c3)ccc2n1 [Compound 169] | > 40 |

Same assay, conditions: inhibitory effectiveness toward CDK-2; read-out: IC50

| IC50 [µM] | Compound |
| --- | --- |
| < 1 | COC(=O)[C@H](Cc1ccc(O)cc1)NC(=O)c1cc(C(=O)O)c2cc(-c3ccc(OC(F)(F)F)cc3)ccc2n1 [Compound 3] |
| < 1 | Cc1cnc([C@H](Cc2ccc(O)cc2)NCc2cc(C(=O)O)c3cc(-c4cccc(C(F)(F)F)c4)ccc3n2)o1 [Compound 45] |
| < 1 | CO/N=C\[C@H](Cc1ccc(O)cc1)NC(=O)c1cc(C(=O)O)c2cc(-c3cccc(C(F)(F)F)c3)ccc2n1 [Compound 59] |
| > 40 | COC(=O)[C@H](Cc1ccccc1)NC(=O)c1cc(C(=O)O)c2cc(-c3cccs3)ccc2n1 [Compound 155] |
| > 40 | O=C(N[C@@H](Cc1ccc(O)cc1)c1nnn[nH]1)c1cc(C(=O)O)c2cc(-c3cccc(C(F)(F)F)c3)ccc2n1 [Compound 170] |
| > 40 | COC[C@H](Cc1ccc(O)cc1)NCc1cc(C(=O)OCC(O)CO)c2cc(-c3cccc(C(F)(F)F)c3)ccc2n1 (stereo partly drawn) [Compound 174] |
| > 40 | COC[C@H](Cc1ccc(O)cc1)NCc1cc(C(=O)OCCN(C)C)c2cc(-c3cccc(C(F)(F)F)c3)ccc2n1 [Compound 175] |
| > 40 | COC[C@H](Cc1ccc(O)cc1)NCc1cc(C(=O)OC[C@@H](N)C(C)C)c2cc(-c3cccc(C(F)(F)F)c3)ccc2n1 [Compound 176] |
| > 40 | COC[C@H](Cc1ccc(O)cc1)NC(=O)c1cc(C(=O)O)c2cc(C#CCCO)ccc2n1 [Compound 186] |
| > 40 | COC[C@H](Cc1ccc(O)cc1)NC(=O)c1cc(C(=O)O)c2cc(C#CCCn3cccn3)ccc2n1 [Compound 224] |

Further lines, the compound ahead of its results:

| Compound | IC50 [µM] |
| --- | --- |
| COC(=O)[C@H](Cc1ccc(O)cc1)NC(=O)c1cc(C(=O)O)c2cc(/C=C/c3ccc(Cl)cc3)ccc2n1 [Compound 7] | < 1 |
| COC[C@H](Cc1ccc(O)cc1)NC(=O)c1cc(C(=O)O)c2cc(-c3cccc(C(F)(F)F)c3)ccc2n1 [Compound 13] | < 1 |
| CCCCCC#Cc1ccc2nc(C(=O)N[C@H](COC)Cc3ccc(O)cc3)cc(C(=O)O)c2c1 [Compound 19] | < 1 |
| CCCCCCCc1ccc2nc(C(=O)N[C@H](COC)Cc3ccc(O)cc3)cc(C(=O)O)c2c1 [Compound 20] | < 1 |
| CCCCC/C=C/c1ccc2nc(C(=O)N[C@H](COC)Cc3ccc(O)cc3)cc(C(=O)O)c2c1 [Compound 21] | < 1 |
| COC(=O)[C@H](Cc1ccc(O)cc1)NC(=O)c1cc(C(=O)O)c2cc(-c3cc(Cl)cc(Cl)c3)ccc2n1 [Compound 39] | < 1 |
| COC[C@H](Cc1ccc(O)cc1)NC(=O)c1cc(C(=O)O)c2cc(OCc3ccc(C(F)(F)F)cc3)ccc2n1 [Compound 55] | < 1 |
| COC(=O)[C@H](Cc1ccc(O)cc1)NC(=O)c1cc(C(=O)O)c2cc(-c3ccsc3)ccc2n1 [Compound 90] | 1 to 40 |
| COC(=O)[C@H](Cc1ccc(O)cc1)NC(=O)c1cc(C(=O)O)c2cc(-c3cccc(O)c3)ccc2n1 [Compound 120] | 1 to 40 |
| COC(=O)[C@@H](NC(=O)c1cc(C(=O)O)c2cc(-c3cccc(C(F)(F)F)c3)ccc2n1)c1ccc(O)cc1 [Compound 122] | 1 to 40 |
| COC[C@H](Cc1ccc(O)cc1)NCc1cc(C(=O)OCCO)c2cc(-c3cccc(C(F)(F)F)c3)ccc2n1 [Compound 173] | > 40 |
| COC[C@H](Cc1ccc(O)cc1)NC(=O)c1cc(C(=O)O)c2cc(CCCCO)ccc2n1 [Compound 189] | > 40 |
| COC[C@H](Cc1ccc(O)cc1)NC(=O)c1cc(C(=O)O)c2cc(-c3cccc(CN4CC[C@@H](O)C4)c3)ccc2n1 [Compound 192] | > 40 |
| COC[C@H](Cc1ccc(O)cc1)NC(=O)c1cc(C(=O)O)c2cc(COc3ccc(Cl)cc3)ccc2n1 [Compound 199] | > 40 |
| CC(C)(C)S(=O)(=O)NCc1cc(C(=O)N[C@H](CN)Cc2ccc(O)cc2)nc2ccc(C#Cc3ccccn3)cc12 [Compound 225] | > 40 |
